Among the data in US11485707B2, “Deuterated compounds as rock inhibitors” (Fochon Pharmaceuticals, Ltd., priority 2018, dated 2022) are ΔIOP % values, retold here.

Where a name gives a salt, the structure may show the parent alone.

For this test the following is noted: male Chinchilla rabbits, topical to right eye once daily for 3 days, 30 μL/eye/dose; dosing on day 3 at 24 h; vs control. As to the method:
ROCK In Vivo Inhibition Activity-Method C
Eighteen male rabbits were randomly assigned to 3 groups (6 animals/group). […] Clinical observations and ophthalmic examinations were performed once daily. IOP was measured by TONOVET Plus before first dosing, and at 0.5, 2, 4, 6 and 24 h after each first dosing on day 1 and day 3.
The change of IOP % was calculated using the following formula: The change of IOP %(ΔIOP %)=[IOP(time)−IOP(control)]/IOP(control)*100).
Select compounds prepared as described above were assayed according to the biological procedures described in Method C.
With `[2H]c1nccc2cc(NC(=O)[C@@]([2H])(c3ccc(C([2H])([2H])OC(=O)c4ccc(C)cc4C)cc3)C([2H])([2H])N)ccc12` [Example 7, (S)-(4-(3-amino-1-((isoquinolin-6-yl-1-d)amino)-1-oxopropan-2-yl-2,3,3-d3)phenyl)methyl-d2 2,4-dimethylbenzoate dihydrochloride], the ΔIOP % was determined as 0.48%.

For the compound `[2H]C([2H])([2H])c1ccc(C(=O)OC([2H])([2H])c2ccc([C@@H](CN)C(=O)Nc3ccc4cnccc4c3)cc2)c(C([2H])([2H])[2H])c1` [Example 15, (S)-(4-(3-amino-1-(isoquinolin-6-ylamino)-1-oxopropan-2-yl)phenyl)methyl-d2 2,4-bis(methyl-d3)benzoate dihydrochloride], the ΔIOP % is recorded as −4.25%. Consider `[2H]c1nccc2cc(NC(=O)[C@]([2H])(CN)c3ccc(C([2H])([2H])OC(=O)c4ccc(C([2H])([2H])[2H])cc4C([2H])([2H])[2H])cc3)ccc12` [Example 23, (S)-(4-(3-amino-1-((isoquinolin-6-yl-1-d)amino)-1-oxopropan-2-yl-2-d)phenyl) methyl-d2 2,4-bis (methyl-d3)benzoate dihydrochloride], for which the ΔIOP % is recorded as −0.87%.

For `[2H]C([2H])(OC(=O)c1ccc(C)cc1C)c1ccc([C@H](C(=O)Nc2ccc3cnccc3c2)C([2H])([2H])N)cc1` [Example 8, (S)-(4-(3-amino-1-(isoquinolin-6-ylamino)-1-oxopropan-2-yl-3,3-d2)phenyl)methyl-d2 2,4-dimethylbenzoate dihydrochloride], the ΔIOP % is reported as −7.52%. Consider `[2H]C([2H])([2H])c1ccc(C(=O)OCc2ccc([C@@H](CN)C(=O)Nc3ccc4cnccc4c3)cc2)c(C([2H])([2H])[2H])c1` [Example 14, (S)-4-(3-amino-1-(isoquinolin-6-ylamino)-1-oxopropan-2-yl)benzyl 2,4-bis(methyl-d3)benzoate dihydrochloride], for which the ΔIOP % was −5.81%. Then `Cc1ccc(C(=O)OCc2ccc([C@@H](CN)C(=O)Nc3ccc4cnccc4c3)cc2)c(C)c1.Cl.Cl` [Reference compound 1, (S)-4-(3-amino-1-(isoquinolin-6-ylamino)-1-oxopropan-2-yl)benzyl 2,4-dimethylbenzoate dihydrochloride, reference compound], with −4.35%; and `[2H]c1nccc2cc(NC(=O)[C@H](CN)c3ccc(C([2H])([2H])OC(=O)c4ccc(C)cc4C)cc3)ccc12` [Example 18, (S)-(4-(3-amino-1-((isoquinolin-6-yl-1-d)amino)-1-oxopropan-2-yl)phenyl) methyl-d2 2,4-dimethylbenzoate], with −1.1%; and `[2H]c1nccc2cc(NC(=O)[C@@H](c3ccc(C([2H])([2H])OC(=O)c4ccc(C)cc4C)cc3)C([2H])([2H])N)ccc12` [Example 12, (S)-(4-(3-amino-1-((isoquinolin-6-yl-1-d)amino)-1-oxopropan-2-yl-3,3-d2)phenyl)methyl-d2 2,4-dimethylbenzoate dihydrochloride], with −5.23%. Next, `[2H]c1nccc2cc(NC(=O)[C@H](CN)c3ccc(COC(=O)c4ccc(C([2H])([2H])[2H])cc4C([2H])([2H])[2H])cc3)ccc12` [Example 19, (S)-4-(3-amino-1-((isoquinolin-6-yl-1-d)amino)-1-oxopropan-2-yl)benzyl 2,4-bis(methyl-d3)benzoate dihydrochloride]: −3.3%; `[2H]C([2H])(OC(=O)c1ccc(C)cc1C)c1ccc([C@@]([2H])(CN)C(=O)Nc2ccc3cnccc3c2)cc1` [Example 9, (S)-(4-(3-amino-1-(isoquinolin-6-ylamino)-1-oxopropan-2-yl-2-d)phenyl)methyl-d2 2,4-dimethylbenzoate dihydrochloride]: −3.06%; `[2H]c1nccc2cc(NC(=O)[C@@H](c3ccc(COC(=O)c4ccc(C)cc4C)cc3)C([2H])([2H])N)ccc12` [Example 4, (S)-4-(3-amino-1-((isoquinolin-6-yl-1-d)amino)-1-oxopropan-2-yl-3,3-d2)benzyl 2,4-dimethylbenzoate dihydrochloride]: −15.63%. Regarding `[2H]c1nccc2cc(NC(=O)[C@]([2H])(CN)c3ccc(C([2H])([2H])OC(=O)c4ccc(C)cc4C)cc3)ccc12` [Example 13, (S)-(4-(3-amino-1-((isoquinolin-6-yl-1-d)amino)-1-oxopropan-2-yl-2-d)phenyl) methyl-d2 2,4-dimethylbenzoate dihydrochloride], the ΔIOP % is recorded as −8.48%.

Consider `[2H]C([2H])(OC(=O)c1ccc(C)cc1C)c1ccc([C@]([2H])(C(=O)Nc2ccc3cnccc3c2)C([2H])([2H])N)cc1` [Example 10, (S)-(4-(3-amino-1-(isoquinolin-6-ylamino)-1-oxopropan-2-yl-2,3,3-d3)phenyl)methyl-d2 2,4-dimethylbenzoate dihydrochloride], for which the ΔIOP % is recorded as −0.78%. As for `[2H]C([2H])([2H])c1ccc(C(=O)OC([2H])([2H])c2ccc([C@@]([2H])(CN)C(=O)Nc3ccc4cnccc4c3)cc2)c(C([2H])([2H])[2H])c1` [Example 6, (S)-(4-(3-amino-1-(isoquinolin-6-ylamino)-1-oxopropan-2-yl-2-d)phenyl)methyl-d2 2,4-bis(methyl-d3)benzoate dihydrochloride], the ΔIOP % is given as −16.08%.

Turning to `[2H]C([2H])(OC(=O)c1ccc(C)cc1C)c1ccc([C@@H](CN)C(=O)Nc2ccc3cnccc3c2)cc1` [Example 3, (S)-(4-(3-amino-1-(isoquinolin-6-ylamino)-1-oxopropan-2-yl)phenyl)methyl-d2 2,4-dimethylbenzoate], the ΔIOP % is −5.02%.

Regarding `[2H]c1nccc2cc(NC(=O)[C@@H](c3ccc(COC(=O)c4ccc(C([2H])([2H])[2H])cc4C([2H])([2H])[2H])cc3)C([2H])([2H])N)ccc12` [Example 21, (S)-4-(3-amino-1-((isoquinolin-6-yl-1-d)amino)-1-oxopropan-2-yl-3,3-d2) benzyl 2,4-bis(methyl-d3)benzoate dihydrochloride], the ΔIOP % is listed as −5.06%.

Consider `[2H]C([2H])(N)[C@@H](C(=O)Nc1ccc2cnccc2c1)c1ccc(COC(=O)c2ccc(C)cc2C)cc1` [Example 11, (S)-4-(3-amino-1-(isoquinolin-6-ylamino)-1-oxopropan-2-yl-3,3-d2) benzyl 2,4-dimethylbenzoate dihydrochloride], for which the ΔIOP % was −9.57%. Regarding `[2H]C([2H])([2H])c1ccc(C(=O)OC([2H])([2H])c2ccc([C@]([2H])(C(=O)Nc3ccc4cnccc4c3)C([2H])([2H])N)cc2)c(C([2H])([2H])[2H])c1` [Example 5, (S)-(4-(3-amino-1-(isoquinolin-6-ylamino)-1-oxopropan-2-yl-2,3,3-d3)phenyl)methyl-d2 2,4-bis(methyl-d3)benzoate dihydrochloride], the ΔIOP % was 1.19%.

For the compound `[2H]c1nccc2cc(NC(=O)[C@H](CN)c3ccc(C([2H])([2H])OC(=O)c4ccc(C([2H])([2H])[2H])cc4C([2H])([2H])[2H])cc3)ccc12` [Example 20, (S)-(4-(3-amino-1-((isoquinolin-6-yl-1-d)amino)-1-oxopropan-2-yl)phenyl) methyl-d2 2,4-bis (methyl-d3)benzoate dihydrochloride], the ΔIOP % is −4.89%. On to `[2H]c1nccc2cc(NC(=O)[C@H](CN)c3ccc(COC(=O)c4ccc(C)cc4C)cc3)ccc12` [Example 1, (S)-4-(3-amino-1-((isoquinolin-6-yl-1-d)amino)-1-oxopropan-2-yl)benzyl 2,4-dimethylbenzoate], for which the ΔIOP % is on record as −1.5%. Then `[2H]C([2H])([2H])c1ccc(C(=O)OCc2ccc([C@H](C(=O)Nc3ccc4cnccc4c3)C([2H])([2H])N)cc2)c(C([2H])([2H])[2H])c1` [Example 16, (S)-4-(3-amino-1-(isoquinolin-6-ylamino)-1-oxopropan-2-yl-3,3-d2)benzyl 2,4-bis(methyl-d3)benzoate dihydrochloride], with −1.44%; and `[2H]c1nccc2cc(NC(=O)[C@@H](c3ccc(C([2H])([2H])OC(=O)c4ccc(C([2H])([2H])[2H])cc4C([2H])([2H])[2H])cc3)C([2H])([2H])N)ccc12` [Example 22, (S)-(4-(3-amino-1-((isoquinolin-6-yl-1-d)amino)-1-oxopropan-2-yl-3,3-d2)phenyl) methyl-d2 2,4-bis (methyl-d3)benzoate dihydrochloride], with 0.08%.
